The record followed here is patent US20190185544A1, “COMPOSITIONS AND METHODS OF MODULATING ABETA PROTEIN” (University of South Florida, priority 2016, published 2019).

In assay [1] the test system is N-terminus of APP. As to the kind of experiment: Co-immunoprecipitation and co-localisation with N-terminal APP in CHO/APPwt cells. The assay is classed as binding, human. The conditions noted are these: peptides 10 μM or apoE 10 μg/mL, 2 h; IP with 6H3B5 or pN-APP. The procedure: Total secreted APP (t-sAPP) and full-length APP (f-APP) in total (inputs), immunoprecipitates and immunodepleted media and lysates were determined by WB using 22C11 or anti-C-terminal APP751/70 antibody (pC-APP), respectively (FIG. 20A left panels and FIG. 20B, top panels). Alternatively, conditioned media and cell lysates were IP with anti-N-terminal APP41/66 antibody (pN-APP) and apoE, or 6KApoEp and ApoEp, was determined using anti-human apoE antibody (ApoE1H4; FIG. 20A, right panels) or 6H3B5, respectively (FIG. 20B, bottom panels). In addition, CHO/APPwt cells were plated at 8 well-chambers at 1×10^5/well for 24 h, treated with 6K, ApoEp or 6KApoEp at 10 μM for 2 h, fixed in 4% paraformaldehyde and stained with 6H3B5 and pN-APP antibodies (FIG. 20C). Alexa Fluor 488 goat anti-mouse IgG (green) was used to detect ApoEp and 6KApoEp, while Alexa Fluor 594 donkey anti-rabbit IgG (red) was used to detect N-terminal APP. DAPI co-staining was done to show nuclear DNA. Homogenates prepared from three TgAPPwt mice (2 female/1 male), two AD patients (AD1[…], AD2[…]) and two normal age-matched control cortices (Ctrl1[…], Ctrl2[…]) were also IP with 6H3B5 or pN-APP and t-APP and apoE were determined using 6E10 and mApoE, respectively (FIGS. 20D-20E).
Total secreted APP in conditioned media and full length APP in cell lysates were then determined by WB using anti-N-terminal (22C11) and anti-C-terminal APP antibodies (pC-APP), respectively. […] In addition, ApoEp and 6KApoEp colocalized with N-terminal APP in cultured CHO/APPwt cells as determined by immunofluorescence staining with 6H3B5 and pN-APP antibodies (FIG. 20C), respectively, confirming that N-terminal APP physically associates with apoE in cell culture. […]
WB analyses were performed as previously described^43,44. […] For all other proteins detected by WB, 10% tris-SDS gels were used. Densitometry analysis was performed as previously described using a FluorS Multiimager with Quantity One™ software 43. […]

Assay [2] has as its system N-terminal APP (sAPPα, sAPPβ, APP31/60). As to the kind of experiment: In vitro co-immunoprecipitation with recombinant sAPPα/β and APP31/60. Format: binding, human. The conditions noted are these: sAPPα 100 nM, apoE4 100 nM, 6KApoEp or 6K at 5 or 10 μM, 1 h, 37° C.; P<0.05 at 10 μM.

Sequence of N-terminus of APP (P05067 18-189 limits assumed): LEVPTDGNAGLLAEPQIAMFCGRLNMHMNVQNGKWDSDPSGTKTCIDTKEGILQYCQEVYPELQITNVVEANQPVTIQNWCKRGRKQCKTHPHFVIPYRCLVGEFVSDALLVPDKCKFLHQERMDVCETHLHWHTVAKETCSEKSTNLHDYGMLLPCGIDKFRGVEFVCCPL
Sequence of N-terminal APP (sAPPα, sAPPβ, APP31/60) (P05067 18-189 limits assumed): as above

Take “6K: 6 lysines control peptide (KKKKKK) [reference compound]”: the “immunoprecipitation and localization with N-terminal APP” value in assay [1] is “but not 6K, immunoprecipitated and localized with N-terminal APP”. In assay [2], the “co-immunoprecipitation of sAPPα with apoE4 (apoE4/sAPPα band density ratio)” value is “but not 6K, reduced co-immunoprecipitation of sAPPα with apoE4”.
